Values quoted from earlier work, collected in patent publication US9724304B2, “Nanospheres for therapeutic agent delivery” (Temple University—Of The Commonwealth System of Higher …, priority 2012, dated 2017).
≈ marks a conversion by molar mass, not a printed value.

Conditions: at 25° C.

For `CC1=C(/C=C/C(C)=C/C=C/C(C)=C/C(=O)O)C(C)(C)CCC1` [ATRA, All-trans retinoic acid], the aqueous solubility is given as 29 µg/mL (≈ 96.5 µM).
